Results on 13 compounds are retold here after patent US10377791B2, “Therapeutically active estratrienthiazole derivatives as inhibitors of 17 B-hydroxysteroid dehydrogenase, type 1” (FORENDO PHARMA LTD, priority 2013, dated 2019).

Experiment [1] addresses T1, recombinant human 17β-HSD1 (Homo sapiens, UniProt P14061).
T1 construct: made in house; host or cells: Sd9 (Sf9) insect cells, baculovirus (Bac to Bac Expression System)
T1 sequence (P14061 1-328): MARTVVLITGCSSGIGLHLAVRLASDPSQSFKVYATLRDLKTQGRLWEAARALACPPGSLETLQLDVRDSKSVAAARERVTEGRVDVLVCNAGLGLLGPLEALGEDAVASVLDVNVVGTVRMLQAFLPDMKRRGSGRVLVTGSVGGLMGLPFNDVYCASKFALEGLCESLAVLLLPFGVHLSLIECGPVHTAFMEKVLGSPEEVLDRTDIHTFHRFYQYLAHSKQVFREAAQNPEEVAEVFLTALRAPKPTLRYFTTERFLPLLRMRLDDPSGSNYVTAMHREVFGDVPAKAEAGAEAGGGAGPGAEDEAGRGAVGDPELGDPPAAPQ
Put plainly: Inhibition of recombinant human 17β-HSD1. Type of experiment: biochemical. To be noted: inhibitor at 1 μM; 30 nM estrone, 1 mM NADPH, 30 min at RT; read-out: 17β-HDS1 Inhibition % at 1 μM. As for the experimental part:
Recombinant baculovirus was generated by the “Bac to Bac Expression System” (Invitrogen). Recombinant bacmid was transfected to Sd9 insect cells using “Cellfectin Reagent” (Invitrogen). 60 h later cells were harvested; the microsomal fraction was isolated as described by Puranen, T. J., Poutanen, M. H., Peltoketo, H. E., Vihko, P. T. and Vihko, R. K. (1994) Site-directed mutagenesis of the putative active site of human 17 β-hydroxysteroid dehydrogenase type 1. Biochem. J. 304: 289-293. Aliquots were stored frozen until determination of enzymatic activity.
Recombinant protein (1 μg/ml) was incubated in 20 mM KH2PO4 pH 7.4 with 30 nM estrone (including 800 000 cpm/ml of ^3H-estrone) and 1 mM NADPH for 30 min at RT, in the presence of the potential inhibitor at concentrations 1 μM or 0.1 μM. Inhibitor stock solutions were prepared in DMSO. Final concentration of DMSO was adjusted to 1% in all samples. The enzyme reaction was stopped by addition of 10% trichloroacetic acid (final concentration). Samples were centrifuged in a microtiter plate at 4000 rpm for 10 min. Supernatants were applied to reverse phase HPLC on a Waters Symmetry C18 column, equipped with a Waters Sentry Guard column. Isocratic HPLC runs were performed at RT at a flow rate of 1 ml/min in acetonitrile:water 48:52 as running solvent. Radioactivity was monitored in the eluate by a Packard Flow Scintillation Analyzer. Total radioactivity for estrone and estradiol were determined in each sample and percent conversion of estrone to estradiol was calculated according to the following formula:
(§1) [formula] Percent inhibition was calculated flowingly: % inhibition=100−% conversion

The target of experiment [2] is T2, recombinant human 17β-HSD2 (Homo sapiens, UniProt P37059).
T2 construct: made in house; host or cells: Sd9 (Sf9) insect cells, baculovirus (Bac to Bac Expression System)
T2 sequence (P37059 1-387): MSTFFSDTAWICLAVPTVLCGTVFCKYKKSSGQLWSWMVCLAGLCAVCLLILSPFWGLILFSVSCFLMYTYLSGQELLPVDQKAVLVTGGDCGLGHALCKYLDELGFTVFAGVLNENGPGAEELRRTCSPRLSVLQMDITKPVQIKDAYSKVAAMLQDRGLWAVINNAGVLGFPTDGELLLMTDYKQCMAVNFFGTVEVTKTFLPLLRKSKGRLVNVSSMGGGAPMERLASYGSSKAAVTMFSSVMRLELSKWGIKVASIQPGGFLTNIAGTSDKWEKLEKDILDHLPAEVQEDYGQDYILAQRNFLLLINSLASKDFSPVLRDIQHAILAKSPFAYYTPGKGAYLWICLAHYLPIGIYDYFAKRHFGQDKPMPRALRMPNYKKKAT
Put plainly: Inhibition of recombinant human 17β-HSD2. Format: biochemical. To be noted: inhibitor at 1 μM; 50 nM estradiol, 1 mM NADH, 30 min at RT; read-out: 17β-HSD2 Inhibition % at 1 μM. As for the experimental part: Similarly to 17β-HSD1 the Recombinant baculovirus was generated by the “Bac to Bac Expression System” (Invitrogen). Recombinant bacmid was transfected to Sd9 insect cells using “Cellfectin Reagent” (Invitrogen). 60 h later cells were harvested and supernatant were fractionated by the following protocol: • cells were dissolved into 40 ml of A-buffer (40 mM TRIS, pH8.0, 20% glycerol, 20 μM NAD, 0.4 mM PMSF, 150 mM NaCl, 0.5% dodecyl-β-maltoside+protease inhibitor cocktail) • cells were sonicated • lysate was incubated on ice for 15 min • lysate was centrifuged 5000 rpm 15 min, +4° C. • centrifugation of the supernatant 180 000 g 30 min, +4° C. • pellet was dissolved into 8 ml of A-buffer • not resuspended material was removed by centrifugation 5000 rpm 15 min, +4° C. • the clear supernatant was divided into 100 μl aliquots and were stored frozen until determination of enzymatic activity.
The amount of 17β-HSD2 was analysed by immunoblotting and total protein concentration of each extract batch was determined.
Recombinant protein (4 μg/ml) was incubated in 20 mM KH2PO4 pH 8.5 with 50 nM estradiol (including 800 000 cpm/ml of ^3H-estradiol) and 1 mM NADH for 30 min at RT, in the presence of the potential inhibitor at concentrations 1 μM or 0.1 μM. Inhibitor stock solutions were prepared in DMSO. Final concentration of DMSO was adjusted to 1% in all samples. The enzyme reaction was stopped by addition of 10% trichloroacetic acid (final concentration). Samples were centrifuged in a microtiter plate at 4000 rpm for 10 min. Supernatants were applied to reverse phase HPLC on a Waters Symmetry C18 column, equipped with a Waters Sentry Guard column. Isocratic HPLC runs were performed at RT at a flow rate of 1 ml/min in acetonitrile:water 48:52 as running solvent. Radioactivity was monitored in the eluate by a Packard Flow Scintillation Analyzer. Total radioactivity for estrone and estradiol were determined in each sample and percent conversion of estradiol to estrone was calculated according to the following formula:
as §1

As for `Cc1cnc(NC(=O)CC[C@@H]2CC(=O)[C@@]3(C)CCC4c5cc(O)ccc5CCC4C23)s1` (stereo partly drawn) [Compound 88, 3-((13S,15R)-2-hydroxy-13-methyl-17-oxo-7,8,9,11,12,13,14,15,16,17-decahydro-6H-cyclopenta[a]phenanthren-15-yl)-N-(5-methylthiazol-2-yl)propanamide], the inhibition at 1 µM was determined as 93% in experiment [1] and 1% in experiment [2].
In the same order, the values of `Cc1cnc(NC(=O)CC[C@@H]2CC(=O)[C@@]3(C)CCC4c5cc(C(C)(C)C)c(O)cc5CCC4C23)s1` (stereo partly drawn) [Compound 31, 3-((13S,15R)-2-(tert-butyl)-3-hydroxy-13-methyl-17-oxo-7,8,9,11,12,13,14,15,16,17-decahydro-6H-cyclopenta[a]phenanthren-15-yl)-N-(5-methylthiazol-2-yl)propanamide] are 87% and 12%.
For `Cc1cnc(NC(=O)CC[C@@H]2CC(=O)[C@@]3(C)CCC4c5ccc(OC(=O)CNC(=O)OC(C)(C)C)cc5CCC4C23)s1` (stereo partly drawn) [Compound 15, tert-Butoxycarbonylamino-acetic acid (13S,15R)-13-methyl-15-[2-(5-methylthiazol-2-ylcarbamoyl)-ethyl]-17-oxo-7,8,9,11,12,13,14,15,16,17-decahydro-6H-cyclopenta[a]phenanthren-3-yl ester], in that order: 66% and 0%.
In the same order, the values of `Cc1nc2c3c(ccc2o1)C1CC[C@]2(C)C(=O)C[C@@H](CCC(=O)Nc4ncc(C)s4)C2C1CC3` (stereo partly drawn) [Compound 49, 3-((7aS,10R)-2,7a-dimethyl-8-oxo-6,7,7a,8,9,10,10a,10b,11,12-decahydro-5bH-cyclopenta[7,8]phenanthro[1,2-d]oxazol-10-yl)-N-(5-methylthiazol-2-yl)propanamide] are 84% and 1%.
For `Cc1cnc(NC(=O)CC[C@@H]2CC(=O)[C@@]3(C)CCC4c5ccc6oc(=O)[nH]c6c5CCC4C23)s1` (stereo partly drawn) [Compound 51, 3-((7aS,10R)-7a-methyl-2,8-dioxo-2,5b,6,7,7a,8,9,10,10a,10b,11,12-dodecahydro-1H-cyclopenta[7,8]phenanthro[1,2-d]oxazol-10-yl)-N-(5-methylthiazol-2-yl)propanamide], the values for the inhibition at 1 µM in experiment [1] and in experiment [2] were 78% and 1%, respectively.
In the same order, the values of `Cc1cnc(NC(=O)CC[C@@H]2/C(=C/O)C(=O)[C@@]3(C)CCC4c5ccc(O)cc5CCC4C23)s1` (stereo partly drawn) [Compound 95, 3-{(13S,15S)-3-Hydroxy-16-[1-hydroxy-methylidene]-13-methyl-17-oxo-7,8,9,11,12,13,14,15,16,17-decahydro-6H-cyclopenta[a]phenanthren-15-yl}-N-(5-methylthiazol-2-yl)propanamide] are 97% and 3%.
Regarding `Cc1cnc(NC(=O)CC[C@@H]2CC(=O)[C@@]3(C)CCC4c5ccc(OS(C)(=O)=O)c([N+](=O)[O-])c5CCC4C23)s1` (stereo partly drawn) [Compound 39, (13S,15R)-13-methyl-15-(3-((5-methylthiazol-2-yl)amino)-3-oxopropyl)-4-nitro-17-oxo-7,8,9,11,12,13,14,15,16,17-decahydro-6H-cyclopenta[a]phenanthren-3-yl methanesulfonate], the inhibition at 1 µM is 96% in experiment [1] and 1% in experiment [2].
For `Cc1cnc(NC(=O)CC[C@@H]2CC(=O)[C@@]3(C)CCC4c5ccc(OS(=O)(=O)C(F)(F)F)cc5CCC4C23)s1` (stereo partly drawn) [Compound 79, (13S,15R)-13-methyl-15-(3-((5-methylthiazol-2-yl)amino)-3-oxopropyl)-17-oxo-7,8,9,11,12,13,14,15,16,17-decahydro-6H-cyclopenta[a]phenanthren-3-yl trifluoromethanesulfonate], in that order: 72% and 0%.
In the same order, the values of `CC(=O)Oc1ccc2c(c1)CCC1C2CC[C@]2(C)C(=O)C[C@@H](CCC(=O)Nc3ncc(C)s3)C12` (stereo partly drawn) [Compound 1, Acetic acid (13S,15R)-13-methyl-15-[2-(5-methylthiazol-2-ylcarbamoyl)-ethyl]-17-oxo-7,8,9,11,12,13,14,15,16,17-decahydro-6H-cyclopenta[a]phenanthren-3-yl ester] are 92% and 13%.
For `CCOC(=O)Oc1ccc2c(c1)CCC1C2CC[C@]2(C)C(=O)C[C@@H](CCC(=O)Nc3ncc(C)s3)C12` (stereo partly drawn) [Compound 20, Ethyl ((13S,15R)-13-methyl-15-(3-((5-methylthiazol-2-yl)amino)-3-oxopropyl)-17-oxo-7,8,9,11,12,13,14,15,16,17-decahydro-6H-cyclopenta[a]phenanthren-3-yl) carbonate], the inhibition at 1 µM came out at 52% in experiment [1] and 0% in experiment [2].
In the same order, the values of `Cc1cnc(NC(=O)CC[C@@H]2CC(=O)[C@@]3(C)CCC4c5cc([N+](=O)[O-])c(O)c(F)c5CCC4C23)s1` (stereo partly drawn) [Compound 73, 3-((13S,15R)-4-fluoro-3-hydroxy-13-methyl-2-nitro-17-oxo-7,8,9,11,12,13,14,15,16,17-decahydro-6H-cyclopenta[a]phenanthren-15-yl)-N-(5-methylthiazol-2-yl)propanamide] are 90% and 2%.
On to `Cc1cnc(NC(=O)CC[C@@H]2C(Br)C(=O)[C@@]3(C)CCC4c5cc(Br)c(O)c(Br)c5CCC4C23)s1` (stereo partly drawn) [Compound 59, N-(5-methylthiazol-2-yl)-3-((13S,15S)-2,4,16-tribromo-3-hydroxy-13-methyl-17-oxo-7,8,9,11,12,13,14,15,16,17-decahydro-6H-cyclopenta[a]phenanthren-15-yl)propanamide], for which the inhibition at 1 µM was 79% in experiment [1] and 2% in experiment [2].
Regarding `Cc1cnc(NC(=O)CC[C@@H]2CC(=O)[C@@]3(C)CCC4c5cc(I)c(O)cc5CCC4C23)s1` (stereo partly drawn) [Compound 55, 3-((13S,15R)-3-hydroxy-2-iodo-13-methyl-17-oxo-7,8,9,11,12,13,14,15,16,17-decahydro-6H-cyclopenta[a]phenanthren-15-yl)-N-(5-methylthiazol-2-yl)propanamide], the values for the inhibition at 1 µM in experiment [1] and in experiment [2] were 98% and 7%, respectively.
